Measurements from patent US20240158446A1, “CYCLIC COMPOUND HAVING SELECTIVE INHIBITORY ACTION ON KRAS OVER HRAS AND NRAS” (CHUGAI SEIYAKU KABUSHIKI KAISHA, priority 2021, published 2024).
Where a SMILES comes first, the peptide text is derived from it. Bridges are numbered along the chain shown (N, C = ends). [ ]: non-standard residue; d: D form. hPhe(3-Cl-4-CF3) = N[C@@H](CCc1ccc(C(F)(F)F)c(Cl)c1)C(=O)O; NPrPhe(4-CF3) = CCCN[C@@H](Cc1ccc(C(F)(F)F)cc1)C(=O)O; NMeGly(cPent) = CN[C@H](C(=O)O)C1CCCC1; Pro(4,4-F2) = O=C(O)[C@@H]1CC(F)(F)CN1; Hyp = O=C(O)[C@@H]1C[C@@H](O)CN1; NMeD = CN[C@@H](CC(=O)O)C(=O)O; NMeL = CN[C@@H](CC(C)C)C(=O)O; NMeA = CN[C@@H](C)C(=O)O; Ac5c = NC1(C(=O)O)CCCC1; Aze = O=C(O)[C@@H]1CCN1; Ac4c = NC1(C(=O)O)CCC1; NEtG = CCNCC(=O)O; Sar = CNCC(=O)O

Assays:
[1] = biological target: GDP-bound NRAS wild-type protein (Homo sapiens, UniProt P01111); experiment: Binding to NRAS by surface plasmon resonance (SPR), Single Cycle Kinetics; conditions: SPR, GDP-bound NRAS wild-type protein vs GDP-bound KRAS wild-type protein
[2] = biological target: GDP-bound KRAS wild-type protein (Homo sapiens, UniProt P01116); experiment: Binding to KRAS by surface plasmon resonance (SPR), Single Cycle Kinetics; conditions: SPR Single Cycle Kinetics, GDP-bound KRAS wild-type protein, 1:1 binding model; read-out: KRAS KD
[3] = biological target: GDP-bound HRAS wild-type protein (Homo sapiens, UniProt P01112); experiment: Binding to HRAS by surface plasmon resonance (SPR), Single Cycle Kinetics; conditions: SPR, GDP-bound HRAS wild-type protein vs GDP-bound KRAS wild-type protein
GDP-bound HRAS wild-type protein, sequence (P01112 whole entry): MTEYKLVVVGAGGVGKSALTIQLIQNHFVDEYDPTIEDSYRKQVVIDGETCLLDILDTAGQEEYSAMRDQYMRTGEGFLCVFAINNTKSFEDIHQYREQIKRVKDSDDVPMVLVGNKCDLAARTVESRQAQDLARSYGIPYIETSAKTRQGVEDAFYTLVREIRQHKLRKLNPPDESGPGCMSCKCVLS

GDP-bound KRAS wild-type protein, sequence (P01116 whole entry): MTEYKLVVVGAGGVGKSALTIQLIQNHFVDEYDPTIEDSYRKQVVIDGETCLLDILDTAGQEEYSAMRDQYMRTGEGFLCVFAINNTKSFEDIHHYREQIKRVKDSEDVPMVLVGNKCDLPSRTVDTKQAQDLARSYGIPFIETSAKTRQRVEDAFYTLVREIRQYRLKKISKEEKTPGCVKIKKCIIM
GDP-bound NRAS wild-type protein, sequence (P01111 whole entry): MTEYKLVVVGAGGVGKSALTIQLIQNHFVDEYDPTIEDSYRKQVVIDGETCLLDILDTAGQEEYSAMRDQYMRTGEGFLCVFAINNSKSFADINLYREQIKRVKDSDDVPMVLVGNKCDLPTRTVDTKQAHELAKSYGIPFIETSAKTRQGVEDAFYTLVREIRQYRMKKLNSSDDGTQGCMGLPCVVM

Row | Kd [2] [nM] | Structure (SMILES) | NRAS/KRAS (ratio of KD value with respect to NRAS to KD value with respect to KRAS) [1] | HRAS/KRAS (ratio of KD value with respect to HRAS to KD value with respect to KRAS) [3]
1 | 0.099 | CCCN1C(=O)CN(C)C(=O)CN(CC)C(=O)[C@H]([C@@H](C)CC)NC(=O)[C@H](CC(C)C)N(C)C(=O)C[C@@H](C(=O)N(C)C)N(C)C(=O)[C@H](C2CCCC2)N(C)C(=O)C2(CCCC2)NC(=O)[C@@H]2CC(F)(F)CN2C(=O)[C@H](CCc2ccc(C(F)(F)F)c(Cl)c2)NC(=O)CN(C)C(=O)[C@@H]1Cc1ccc(C(F)(F)F)cc1 [PP0425] ([NMeL]I[NEtG][Sar][NPrPhe(4-CF3)][Sar][hPhe(3-Cl-4-CF3)][Pro(4,4-F2)][Ac5c][NMeGly(cPent)][NMeD]-NMe2; lactam N-11) | B (a compound having 3 or more and less than 10 is denoted as B) | C (A compound having a KD ratio of 0.1 or more and less than 3 is denoted as C)
2 | 0.12 | CCCN1C(=O)CN(C)C(=O)CN(CC)C(=O)[C@H]([C@@H](C)CC)NC(=O)[C@H](CC(C)C)N(C)C(=O)C[C@@H](C(=O)N(C)C)N(C)C(=O)[C@H](C2CCCC2)N(C)C(=O)C2(CCC2)NC(=O)[C@@H]2CC(F)(F)CN2C(=O)[C@H](CCc2ccc(C(F)(F)F)c(Cl)c2)NC(=O)CN(C)C(=O)[C@@H]1Cc1ccc(C(F)(F)F)cc1 [PP0426] ([NMeL]I[NEtG][Sar][NPrPhe(4-CF3)][Sar][hPhe(3-Cl-4-CF3)][Pro(4,4-F2)][Ac4c][NMeGly(cPent)][NMeD]-NMe2; lactam N-11) | C (A compound having a KD ratio of 0.1 or more and less than 3 is denoted as C) | C (A compound having a KD ratio of 0.1 or more and less than 3 is denoted as C)
3 | 0.11 | CCCN1C(=O)CN(C)C(=O)CN(CC)C(=O)[C@H]([C@@H](C)CC)NC(=O)[C@H](CC(C)C)N(C)C(=O)C[C@@H](C(=O)N(C)C)N(C)C(=O)[C@H](C2CCCC2)N(C)C(=O)C2(CCCC2)NC(=O)[C@@H]2C[C@@H](OCC)CN2C(=O)[C@H](CCc2ccc(C(F)(F)F)c(Cl)c2)NC(=O)CN(C)C(=O)[C@@H]1Cc1ccc(C(F)(F)F)cc1 [PP0427] ([NMeL]I[NEtG][Sar][NPrPhe(4-CF3)][Sar][hPhe(3-Cl-4-CF3)][Hyp](Et)[Ac5c][NMeGly(cPent)][NMeD]-NMe2; lactam N-11) | B (a compound having 3 or more and less than 10 is denoted as B) | C (A compound having a KD ratio of 0.1 or more and less than 3 is denoted as C)
4 | 0.063 | CCCN1C(=O)CN(C)C(=O)CN(CC)C(=O)[C@H]([C@@H](C)CC)NC(=O)[C@H](CC(C)C)N(C)C(=O)C[C@@H](C(=O)N(C)C)N(C)C(=O)[C@H](C2CCCC2)N(C)C(=O)C2(CCC2)NC(=O)[C@@H]2C[C@@H](OCC)CN2C(=O)[C@H](CCc2ccc(C(F)(F)F)c(Cl)c2)NC(=O)CN(C)C(=O)[C@@H]1Cc1ccc(C(F)(F)F)cc1 [PP0428] ([NMeL]I[NEtG][Sar][NPrPhe(4-CF3)][Sar][hPhe(3-Cl-4-CF3)][Hyp](Et)[Ac4c][NMeGly(cPent)][NMeD]-NMe2; lactam N-11) | B (a compound having 3 or more and less than 10 is denoted as B) | C (A compound having a KD ratio of 0.1 or more and less than 3 is denoted as C)
5 | 0.26 | CCCN1C(=O)CN(C)C(=O)[C@@H]2CCN2C(=O)[C@H]([C@@H](C)CC)NC(=O)[C@H](CC(C)C)N(C)C(=O)C[C@@H](C(=O)N(C)C)N(C)C(=O)[C@H](C2CCCC2)N(C)C(=O)C2(CCC2)NC(=O)[C@@H]2CCCN2C(=O)[C@H](CCc2ccc(C(F)(F)F)c(Cl)c2)NC(=O)CN(C)C(=O)[C@@H]1Cc1ccc(C(F)(F)F)cc1 [PP0430] ([NMeL]I[Aze][Sar][NPrPhe(4-CF3)][Sar][hPhe(3-Cl-4-CF3)]P[Ac4c][NMeGly(cPent)][NMeD]-NMe2; lactam N-11) | B (a compound having 3 or more and less than 10 is denoted as B) | B (a compound having 3 or more and less than 10 is denoted as B)
6 | 0.15 | CCCN1C(=O)CN(C)C(=O)[C@@H]2CCN2C(=O)[C@H]([C@@H](C)CC)NC(=O)[C@H](CC(C)C)N(C)C(=O)C[C@@H](C(=O)N(C)C)N(C)C(=O)[C@H](C2CCCC2)N(C)C(=O)C2(CCCC2)NC(=O)[C@@H]2C[C@@H](OCC)CN2C(=O)[C@H](CCc2ccc(C(F)(F)F)c(Cl)c2)NC(=O)CN(C)C(=O)[C@@H]1Cc1ccc(C(F)(F)F)cc1 [PP0433] ([NMeL]I[Aze][Sar][NPrPhe(4-CF3)][Sar][hPhe(3-Cl-4-CF3)][Hyp](Et)[Ac5c][NMeGly(cPent)][NMeD]-NMe2; lactam N-11) | B (a compound having 3 or more and less than 10 is denoted as B) | B (a compound having 3 or more and less than 10 is denoted as B)
7 | 0.047 | CCCN1C(=O)[C@@H]2CCN2C(=O)[C@H](C)N(C)C(=O)[C@H]([C@@H](C)CC)NC(=O)[C@H](CC(C)C)N(C)C(=O)C[C@@H](C(=O)N(C)C)N(C)C(=O)[C@H](C2CCCC2)N(C)C(=O)C2(CCC2)NC(=O)[C@@H]2CCCN2C(=O)[C@H](CCc2ccc(C(F)(F)F)c(Cl)c2)NC(=O)CN(C)C(=O)[C@@H]1Cc1ccc(C(F)(F)F)cc1 [PP0435] ([NMeL]I[NMeA][Aze][NPrPhe(4-CF3)][Sar][hPhe(3-Cl-4-CF3)]P[Ac4c][NMeGly(cPent)][NMeD]-NMe2; lactam N-11) | C (A compound having a KD ratio of 0.1 or more and less than 3 is denoted as C) | C (A compound having a KD ratio of 0.1 or more and less than 3 is denoted as C)
8 | 0.054 | CCCN1C(=O)[C@@H]2CCN2C(=O)[C@H](C)N(C)C(=O)[C@H]([C@@H](C)CC)NC(=O)[C@H](CC(C)C)N(C)C(=O)C[C@@H](C(=O)N(C)C)N(C)C(=O)[C@H](C2CCCC2)N(C)C(=O)C2(CCCC2)NC(=O)[C@@H]2CC(F)(F)CN2C(=O)[C@H](CCc2ccc(C(F)(F)F)c(Cl)c2)NC(=O)CN(C)C(=O)[C@@H]1Cc1ccc(C(F)(F)F)cc1 [PP0436] ([NMeL]I[NMeA][Aze][NPrPhe(4-CF3)][Sar][hPhe(3-Cl-4-CF3)][Pro(4,4-F2)][Ac5c][NMeGly(cPent)][NMeD]-NMe2; lactam N-11) | C (A compound having a KD ratio of 0.1 or more and less than 3 is denoted as C) | C (A compound having a KD ratio of 0.1 or more and less than 3 is denoted as C)
9 | 0.036 | CCCN1C(=O)[C@@H]2CCN2C(=O)[C@H](C)N(C)C(=O)[C@H]([C@@H](C)CC)NC(=O)[C@H](CC(C)C)N(C)C(=O)C[C@@H](C(=O)N(C)C)N(C)C(=O)[C@H](C2CCCC2)N(C)C(=O)C2(CCC2)NC(=O)[C@@H]2CC(F)(F)CN2C(=O)[C@H](CCc2ccc(C(F)(F)F)c(Cl)c2)NC(=O)CN(C)C(=O)[C@@H]1Cc1ccc(C(F)(F)F)cc1 [PP0437] ([NMeL]I[NMeA][Aze][NPrPhe(4-CF3)][Sar][hPhe(3-Cl-4-CF3)][Pro(4,4-F2)][Ac4c][NMeGly(cPent)][NMeD]-NMe2; lactam N-11) | C (A compound having a KD ratio of 0.1 or more and less than 3 is denoted as C) | B (a compound having 3 or more and less than 10 is denoted as B)
10 | 0.03 | CCCN1C(=O)[C@@H]2CCN2C(=O)[C@H](C)N(C)C(=O)[C@H]([C@@H](C)CC)NC(=O)[C@H](CC(C)C)N(C)C(=O)C[C@@H](C(=O)N(C)C)N(C)C(=O)[C@H](C2CCCC2)N(C)C(=O)C2(CCCC2)NC(=O)[C@@H]2C[C@@H](OCC)CN2C(=O)[C@H](CCc2ccc(C(F)(F)F)c(Cl)c2)NC(=O)CN(C)C(=O)[C@@H]1Cc1ccc(C(F)(F)F)cc1 [PP0438] ([NMeL]I[NMeA][Aze][NPrPhe(4-CF3)][Sar][hPhe(3-Cl-4-CF3)][Hyp](Et)[Ac5c][NMeGly(cPent)][NMeD]-NMe2; lactam N-11) | C (A compound having a KD ratio of 0.1 or more and less than 3 is denoted as C) | C (A compound having a KD ratio of 0.1 or more and less than 3 is denoted as C)
11 | 0.046 | CCCN1C(=O)[C@@H]2CCN2C(=O)CN(C)C(=O)[C@H]([C@@H](C)CC)NC(=O)[C@H](CC(C)C)N(C)C(=O)C[C@@H](C(=O)N(C)C)N(C)C(=O)[C@H](C2CCCC2)N(C)C(=O)C2(CCCC2)NC(=O)[C@@H]2CCCN2C(=O)[C@H](CCc2ccc(C(F)(F)F)c(Cl)c2)NC(=O)CN(C)C(=O)[C@@H]1Cc1ccc(C(F)(F)F)cc1 [PP0440] ([NMeL]I[Sar][Aze][NPrPhe(4-CF3)][Sar][hPhe(3-Cl-4-CF3)]P[Ac5c][NMeGly(cPent)][NMeD]-NMe2; lactam N-11) | C (A compound having a KD ratio of 0.1 or more and less than 3 is denoted as C) | B (a compound having 3 or more and less than 10 is denoted as B)
12 | 0.072 | CCCN1C(=O)[C@@H]2CCN2C(=O)CN(C)C(=O)[C@H]([C@@H](C)CC)NC(=O)[C@H](CC(C)C)N(C)C(=O)C[C@@H](C(=O)N(C)C)N(C)C(=O)[C@H](C2CCCC2)N(C)C(=O)C2(CCC2)NC(=O)[C@@H]2CCCN2C(=O)[C@H](CCc2ccc(C(F)(F)F)c(Cl)c2)NC(=O)CN(C)C(=O)[C@@H]1Cc1ccc(C(F)(F)F)cc1 [PP0441] ([NMeL]I[Sar][Aze][NPrPhe(4-CF3)][Sar][hPhe(3-Cl-4-CF3)]P[Ac4c][NMeGly(cPent)][NMeD]-NMe2; lactam N-11) | C (A compound having a KD ratio of 0.1 or more and less than 3 is denoted as C) | C (A compound having a KD ratio of 0.1 or more and less than 3 is denoted as C)
